Key:
MDA-MB-436 cells = assay: MDA-MB-436 breast cancer cell proliferation assay (CellTiter-Glo); type: cell-based; details: Homo sapiens, 168 h, 7 days, 37° C.
Experimental: Example A2: MDA-MB-436 Breast Cancer Cell Culture
MDA-MB-436 cells were grown in Leibovitz's L-15 medium with 10 μg/ml insulin, 16 μg/ml glutathione, 10% FBS. Cells were passaged at subconfluence after trypsinization and maintained in incubators at 37° C. in a humidified atmosphere with 5% CO2.
Example A3: MDA-MB-436 Breast Cancer Cell Proliferation Assay
Cell proliferation was determined using CellTiter-Glo® Luminescent Cell Viability Assay (Promega, #G7573). MDA-MB-436 cells were seeded in 384-well plates and allowed to attach for 24 h. Compounds were added into 384-well plate by ECHO, and incubated at 37° C. in a humidified atmosphere with 5% CO2. After 7 days, CellTiter-Glo® was added into 384 well plates, contents were mixed on an orbital shaker at 400 g for 2 min before centrifuging the plate for 2 min at 1000 rpm. After incubation at RT for 30 min, luminescence was read on envision.

[1] = target: T1, Human recombinant USP1/UAF1 (Homo sapiens, UniProt O94782); assay: Enzymatic assay: USP1/UAF1 deubiquitination of Ubiquitin Rhodamine 110 (kinetic fluorescence); type: biochemical; details: 2 nM USP1/UAF1, 15 min preincubation at RT, HEPES pH 8.0, 500 nM Ubiquitin Rhodamine 110
T1 construct: purchased R & D E-568-050; host or cells: baculovirus infected Sf21 cells
T1 sequence (O94782 whole entry): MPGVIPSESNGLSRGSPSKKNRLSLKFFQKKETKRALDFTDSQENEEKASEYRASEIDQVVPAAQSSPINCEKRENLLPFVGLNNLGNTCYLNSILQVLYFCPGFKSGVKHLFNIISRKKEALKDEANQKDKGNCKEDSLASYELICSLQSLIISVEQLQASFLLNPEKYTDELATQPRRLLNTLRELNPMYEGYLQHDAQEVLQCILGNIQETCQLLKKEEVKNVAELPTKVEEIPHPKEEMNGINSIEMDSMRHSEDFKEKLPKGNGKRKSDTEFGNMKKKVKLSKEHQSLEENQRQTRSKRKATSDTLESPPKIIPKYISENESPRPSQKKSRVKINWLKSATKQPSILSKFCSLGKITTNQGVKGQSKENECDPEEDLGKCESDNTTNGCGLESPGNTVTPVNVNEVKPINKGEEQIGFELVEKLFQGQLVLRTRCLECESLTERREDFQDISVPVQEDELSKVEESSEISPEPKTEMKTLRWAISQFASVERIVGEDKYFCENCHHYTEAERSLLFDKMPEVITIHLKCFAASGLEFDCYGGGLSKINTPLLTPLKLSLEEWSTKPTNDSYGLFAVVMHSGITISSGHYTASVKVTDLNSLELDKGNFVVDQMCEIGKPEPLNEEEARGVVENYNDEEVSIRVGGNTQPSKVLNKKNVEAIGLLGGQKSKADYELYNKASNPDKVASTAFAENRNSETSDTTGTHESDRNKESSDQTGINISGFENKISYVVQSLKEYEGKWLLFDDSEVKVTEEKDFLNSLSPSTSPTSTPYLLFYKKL
T1 sequence (Q8TAF3 whole entry partner): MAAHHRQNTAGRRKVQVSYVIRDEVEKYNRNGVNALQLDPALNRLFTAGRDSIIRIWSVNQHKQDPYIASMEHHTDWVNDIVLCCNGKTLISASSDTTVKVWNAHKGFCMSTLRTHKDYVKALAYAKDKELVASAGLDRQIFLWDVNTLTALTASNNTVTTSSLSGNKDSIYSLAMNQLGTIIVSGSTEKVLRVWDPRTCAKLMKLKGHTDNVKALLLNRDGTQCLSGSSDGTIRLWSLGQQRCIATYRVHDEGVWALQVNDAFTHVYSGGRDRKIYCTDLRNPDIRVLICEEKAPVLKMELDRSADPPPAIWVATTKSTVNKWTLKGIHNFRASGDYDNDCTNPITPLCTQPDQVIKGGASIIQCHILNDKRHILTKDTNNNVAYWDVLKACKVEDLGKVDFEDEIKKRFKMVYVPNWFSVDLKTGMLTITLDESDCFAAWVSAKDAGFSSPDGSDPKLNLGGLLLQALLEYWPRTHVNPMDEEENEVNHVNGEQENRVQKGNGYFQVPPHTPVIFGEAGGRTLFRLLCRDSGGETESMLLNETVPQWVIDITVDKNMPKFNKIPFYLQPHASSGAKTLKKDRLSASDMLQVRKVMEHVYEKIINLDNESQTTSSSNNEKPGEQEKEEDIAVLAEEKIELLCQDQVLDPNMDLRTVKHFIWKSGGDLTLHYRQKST
Experimental: Example A1: Enzymatic Assay
Human recombinant USP1/UAF1 expressed in baculovirus infected Sf21 cells were used (R & D, E-568-050). Test compound and/or vehicle was incubated with 2 nM of USP1/UAF1 in modified HEPES buffer pH 8.0 for 15 minutes at RT. The reaction was initiated by addition of 500 nM of Ubiquitin Rhodamine 110 (R & D, U-555-050) for kinetic reading. Slope change of fluorescence intensity was read spectrofluorimetrically at 485 nm/535 nm. Dose response of test compounds or reference compound ML-323 was analyzed by nonlinear regression of GraphPad prism software.

Compound	IC50 (MDA-MB-436 cells) [µM]	IC50 [1] [µM]
COc1ncnc(C2CC2)c1-c1nccc2c1CN(c1ccc(-c3nc(C(F)(F)F)cn3C)cn1)CC2 [Compound 2, 8-(4-cyclopropyl-6-methoxypyrimidin-5-yl)-2-(5-(1-methyl-4-(trifluoromethyl)-1H-imidazol-2-yl)pyridin-2-yl)-1,2,3,4-tetrahydro-2,7-naphthyridine]	0.05 to 1	0.05 to 1
COc1ncnc(C2CC2)c1-c1nnn2c1CN(c1ccc(-c3nc(C(F)(F)F)cn3C)cc1)CC2 [Compound 3, 3-(4-cyclopropyl-6-methoxypyrimidin-5-yl)-5-(4-(1-methyl-4-(trifluoromethyl)-1H-imidazol-2-yl)phenyl)-4,5,6,7-tetrahydro-[1,2,3]triazolo[1,5-a]pyrazine]	0.05 to 1	0.05 to 1
COc1ncnc(C2CC2)c1-c1nn(C)c2c1CN(c1ccc(-c3nc(C(F)(F)F)cn3C)cn1)C2 [Compound 5, 3-(4-cyclopropyl-6-methoxypyrimidin-5-yl)-1-methyl-5-(5-(1-methyl-4-(trifluoromethyl)-1H-imidazol-2-yl)pyridin-2-yl)-1,4,5,6-tetrahydropyrrolo[3,4-c]pyrazole]		1 to 10
COc1ncnc(C2CC2)c1-c1nn(C)c2c1CN(c1ncc(-c3nc(C(F)(F)F)cn3C(C)C)s1)C2 [Compound 8, 2-(3-(4-cyclopropyl-6-methoxypyrimidin-5-yl)-1-methyl-4,6-dihydropyrrolo[3,4-c]pyrazol-5(1H)-yl)-5-(1-isopropyl-4-(trifluoromethyl)-1H-imidazol-2-yl)thiazole]	0.05 to 1	0.05 to 1
CC(C)c1ncccc1-c1nn(C)c2c1CN(c1ncc(-c3nc(C(F)(F)F)cn3C)s1)C2 [Compound 9, 2-(3-(2-isopropylpyridin-3-yl)-1-methyl-4,6-dihydropyrrolo[3,4-c]pyrazol-5(1H)-yl)-5-(1-methyl-4-(trifluoromethyl)-1H-imidazol-2-yl)thiazole]		0.05 to 1
COc1ncnc(C2CC2)c1-c1nn(C)c2c1CN(c1cnc(-c3nc(C(F)(F)F)cn3C)s1)C2 [Compound 10, 5-(3-(4-cyclopropyl-6-methoxypyrimidin-5-yl)-1-methyl-4,6-dihydropyrrolo[3,4-c]pyrazol-5(1H)-yl)-2-(1-methyl-4-(trifluoromethyl)-1H-imidazol-2-yl)thiazole]	0.05 to 1	0.05 to 1

More lines, now with the values ahead:

IC50 (MDA-MB-436 cells) [µM]	IC50 [1] [µM]	Compound
1 to 10	1 to 10	CC(C)c1ncccc1-c1ncnc2c1CN(c1ccc(-c3nc(C(F)(F)F)cn3C)cc1)CC2 [Compound 1, 4-(2-isopropylpyridin-3-yl)-6-(4-(1-methyl-4-(trifluoromethyl)-1H-imidazol-2-yl)phenyl)-5,6,7,8-tetrahydropyrido[4,3-d]pyrimidine]
0.05 to 1	0.05 to 1	COc1ncnc(C2CC2)c1-c1nn(C)c2c1CN(c1ncc(-c3nc(C(F)(F)F)cn3C)s1)C2 [Compound 4, 2-(3-(4-cyclopropyl-6-methoxypyrimidin-5-yl)-1-methyl-4,6-dihydropyrrolo[3,4-c]pyrazol-5(1H)-yl)-5-(1-methyl-4-(trifluoromethyl)-1H-imidazol-2-yl)thiazole]
	1 to 10	COc1ncnc(C2CC2)c1-c1nn(C)c2c1CN(c1ccc(-c3nc(C(F)(F)F)cn3C)nc1)C2 [Compound 6, 3-(4-cyclopropyl-6-methoxypyrimidin-5-yl)-1-methyl-5-(6-(1-methyl-4-(trifluoromethyl)-1H-imidazol-2-yl)pyridin-3-yl)-1,4,5,6-tetrahydropyrrolo[3,4-c]pyrazole]
	0.05 to 1	COc1ncnc(C2CC2)c1-c1nn(C)c2c1CN(c1ccc(-c3nc(C(F)(F)F)cn3C)cc1)C2 [Compound 7, 3-(4-cyclopropyl-6-methoxypyrimidin-5-yl)-1-methyl-5-(4-(1-methyl-4-(trifluoromethyl)-1H-imidazol-2-yl)phenyl)-1,4,5,6-tetrahydropyrrolo[3,4-c]pyrazole]
